As usually defined, the melting point is the temperature of the solid-liquid transition.

The compound `CCCCCOc1ccc(C(c2ccccc2)(c2ccccc2)c2ccc(OCCCCC)cc2)cc1` [BPentTPM, Bis(4-(pentyloxy)phenyl)diphenylmethane] gave a melting point of 110 to 113 °C.
`CCCCCCCCOc1ccc(C(c2ccccc2)(c2ccccc2)c2ccc(OCCCCCCCC)cc2)cc1` [BOctTPM, Bis(4-(octyloxy)phenyl)diphenylmethane] returned a melting point of 84.5 to 86.5 °C.
In the case of `CCCCCCOc1ccc(C(c2ccccc2)(c2ccccc2)c2ccc(OCCCCCC)cc2)cc1` [BHexTPM], the melting point fell in the range of 120 to 122 °C.
Under `CCCCCCCOc1ccc(C(c2ccccc2)(c2ccccc2)c2ccc(OCCCCCCC)cc2)cc1` [BHeptTPM, Bis(4-(heptyloxy)phenyl)diphenylmethane] stands 103 to 105 °C.

Values taken from patent US9926506B2, “Tetrarylmethane ethers as fuel markers” (Dow Global Technologies LLC, priority 2014, dated 2018).
